tested on: NL-RLuc virus (recombinant NL4-3 proviral clone with Renilla Luciferase gene); experiment: Inhibition of HIV replication (NL-RLuc reporter virus in MT-2 cells); format: cell-based; conditions: Renilla, NL43, 120 h, read-out: Activity
From the text: Inhibition of HIV replication: A recombinant NL-RLuc proviral clone was constructed in which a section of the nef gene from NL4-3 was replaced with the Renilla Luciferase gene. This virus is fully infectious and can undergo multiple cycles of replication in cell culture. In addition, the luciferous reporter provides a simple and easy method for quantitating the extent of virus growth and consequently, the antiviral activity of test compounds. The plasmid pNLRLuc contains the proviral NL-Rluc DNA cloned into pUC18 at the PvuII site. The NL-RLuc virus was prepared by transfection of 293T cells with the plasmid pNLRLuc. Transfections were performed using the LipofectAMINE PLUS kit from Invitrogen (Carlsbad, Calif.) according to the manufacturer and the virus generated was titered in MT-2 cells. For susceptibility analyses, the titrated virus was used to infect MT-2 cells in the presence of compound, and after 5 days of incubation, cells were processed and quantitated for virus growth by the amount of expressed luciferase. Assay media was RPMI 1640 supplemented with 10% heat inactivated fetal bovine serum (FBS), 100 units/ml penicillin G/100 units/ml streptomycin, 10 mM HEPES buffer pH 7.55 and 2 mM L-glutamine. The results from at least 2 experiments were used to calculate the EC50 values. Luciferase was quantitated using the Dual Luciferase kit from Promega (Madison, Wis.). Susceptibility of viruses to compounds was determined by incubation in the presence of serial dilutions of the compound. The 50% effective concentration (EC50) was calculated by using the exponential form of the median effect equation where (Fa)=1/[1+(ED50/drug conc.)^m] (Johnson V A, Byington R T. Infectivity Assay. In Techniques in HIV Research. ed. Aldovini A, Walker B D. 71-76. New York: Stockton Press.1990). Activity equal to A refers to a compound having an EC50≤100 nM, while B and C denote compounds having an EC50 between 100 nM and 1 uM (B) or >1 uM (C).

`CCCCCc1ccc(-c2c(C)nc(C)c([C@H](OC(C)(C)C)C(=O)O)c2N2CCC(C)(C)CC2)cc1` [Example 22, (S)-2-(tert-Butoxy)-2-(4-(4,4-dimethylpiperidin-1-yl)-2,6-dimethyl-5-(4-pentylphenyl)pyridin-3-yl)acetic acid] and `Cc1nc(C)c([C@H](OC(C)(C)C)C(=O)O)c(N2CCC(C)(C)CC2)c1-c1ccc(CCCO)cc1` [Example 31, (S)-2-(tert-Butoxy)-2-(4-(4,4-dimethylpiperidin-1-yl)-5-(4-(3-hydroxypropyl)phenyl)-2,6-dimethylpyridin-3-yl)acetic acid] cannot be ordered by EC50: < 0.1 µM for the first, < 0.1 µM for the second.

`Cc1nc(C)c([C@H](OC(C)(C)C)C(=O)O)c(N2CCC(C)(C)CC2)c1-c1ccc(SCCC(C)C)cc1` [Example 23, (S)-2-(tert-Butoxy)-2-(4-(4,4-dimethylpiperidin-1-yl)-5-(4-(isopentylthio)phenyl)-2,6-dimethylpyridin-3-yl)acetic acid] and `Cc1nc(C)c([C@H](OC(C)(C)C)C(=O)O)c(N2CCC(C)(C)CC2)c1-c1ccc(S(=O)(=O)C(C)C)cc1` [Example 30, (S)-2-(tert-Butoxy)-2-(4-(4,4-dimethylpiperidin-1-yl)-5-(4-(isopropylsulfonyl)phenyl)-2,6-dimethylpyridin-3-yl)acetic acid] cannot be ordered by EC50: < 0.1 µM for the first, < 0.1 µM for the second.

Compared with `Cc1nc(C)c([C@H](OC(C)(C)C)C(=O)O)c(N2CCC(C)(C)CC2)c1-c1ccc(C(=O)NCc2ccccc2)cc1` [Example 24, (S)-2-(5-(4-(Benzylcarbamoyl)phenyl)-4-(4,4-dimethylpiperidin-1-yl)-2,6-dimethylpyridin-3-yl)-2-(tert-butoxy)acetic acid], `Cc1nc(C)c([C@H](OC(C)(C)C)C(=O)O)c(N2CCC(C)(C)CC2)c1-c1ccc(C(=O)O)c(C(=O)NCc2ccccc2)c1` [Example 45, (S)-2-(benzylcarbamoyl)-4-(5-(tert-butoxy(carboxy)methyl)-4-(4,4-dimethylpiperidin-1-yl)-2,6-dimethylpyridin-3-yl)benzoic acid] is higher in EC50: < 0.1 µM for the first, 0.1 to 1 µM for the second. The first is the more potent here.

`Cc1nc(C)c([C@H](OC(C)(C)C)C(=O)O)c(N2CCC(C)(C)CC2)c1-c1ccc(C(N)=O)cc1` [Example 25, (S)-2-(tert-Butoxy)-2-(5-(4-carbamoylphenyl)-4-(4,4-dimethylpiperidin-1-yl)-2,6-dimethylpyridin-3-yl)acetic acid] and `Cc1nc(C)c([C@H](OC(C)(C)C)C(=O)O)c(N2CCC(C)(C)CC2)c1-c1ccc(CC(N)=O)cc1` [Example 26, (S)-2-(5-(4-(2-Amino-2-oxoethyl)phenyl)-4-(4,4-dimethylpiperidin-1-yl)-2,6-dimethylpyridin-3-yl)-2-(tert-butoxy)acetic acid] fall in the same range of EC50: 0.1 to 1 µM for the first, 0.1 to 1 µM for the second.

`Cc1nc(C)c([C@H](OC(C)(C)C)C(=O)O)c(N2CCC(C)(C)CC2)c1-c1ccc(C2(C#N)CC2)cc1` [Example 27, (S)-2-(tert-Butoxy)-2-(5-(4-(1-cyanocyclopropyl)phenyl)-4-(4,4-dimethylpiperidin-1-yl)-2,6-dimethylpyridin-3-yl)acetic acid] and `Cc1nc(C)c([C@H](OC(C)(C)C)C(=O)O)c(N2CCC(C)(C)CC2)c1-c1ccc(C(C)(C)C#N)cc1` [Example 36, (S)-2-(tert-Butoxy)-2-(5-(4-(2-cyanopropan-2-yl)phenyl)-4-(4,4-dimethylpiperidin-1-yl)-2,6-dimethylpyridin-3-yl)acetic acid] cannot be ordered by EC50: < 0.1 µM for the first, < 0.1 µM for the second.

First: Cc1nc(C)c([C@H](OC(C)(C)C)C(=O)O)c(N2CCC(C)(C)CC2)c1-c1cncnc1 [Example 28, (S)-2-(tert-Butoxy)-2-(4-(4,4-dimethylpiperidin-1-yl)-2,6-dimethyl-5-(pyrimidin-5-yl)pyridin-3-yl)acetic acid]
Second: CSc1ncc(-c2c(C)nc(C)c([C@H](OC(C)(C)C)C(=O)O)c2N2CCC(C)(C)CC2)cn1 [Example 42, (S)-2-(tert-Butoxy)-2-(4-(4,4-dimethylpiperidin-1-yl)-2,6-dimethyl-5-(2-(methylthio)pyrimidin-5-yl)pyridin-3-yl)acetic acid]
The EC50 of the first is higher: 0.1 to 1 µM for the first, < 0.1 µM for the second.

`Cc1nc(C)c([C@H](OC(C)(C)C)C(=O)O)c(N2CCC(C)(C)CC2)c1-c1ccc(N2CCCCC2)cc1` [Example 29, (S)-2-(tert-Butoxy)-2-(4-(4,4-dimethylpiperidin-1-yl)-2,6-dimethyl-5-(4-(piperidin-1-yl)phenyl)pyridin-3-yl)acetic acid] and `Cc1nc(C)c([C@H](OC(C)(C)C)C(=O)O)c(N2CCC(C)(C)CC2)c1-c1ccc(C(C)(C)O)cc1` [Example 38, (S)-2-(tert-Butoxy)-2-(4-(4,4-dimethylpiperidin-1-yl)-5-(4-(2-hydroxypropan-2-yl)phenyl)-2,6-dimethylpyridin-3-yl)acetic acid] cannot be ordered by EC50: < 0.1 µM for the first, < 0.1 µM for the second.

`CNS(=O)(=O)c1ccc(-c2c(C)nc(C)c([C@H](OC(C)(C)C)C(=O)O)c2N2CCC(C)(C)CC2)cc1` [Example 32, (S)-2-(tert-Butoxy)-2-(4-(4,4-dimethylpiperidin-1-yl)-2,6-dimethyl-5-(4-(N-methylsulfamoyl)phenyl)pyridin-3-yl)acetic acid] and `Cc1nc(C)c([C@H](OC(C)(C)C)C(=O)O)c(N2CCC(C)(C)CC2)c1-c1ccc(S(=O)(=O)NC2CC2)cc1` [Example 35, (S)-2-(tert-Butoxy)-2-(5-(4-(N-cyclopropylsulfamoyl)phenyl)-4-(4,4-dimethylpiperidin-1-yl)-2,6-dimethylpyridin-3-yl)acetic acid] fall in the same range of EC50: 0.1 to 1 µM for the first, 0.1 to 1 µM for the second.

`Cc1nc(C)c([C@H](OC(C)(C)C)C(=O)O)c(N2CCC(C)(C)CC2)c1-c1cc(F)c(F)c(F)c1` [Example 33, (S)-2-(tert-Butoxy)-2-(4-(4,4-dimethylpiperidin-1-yl)-2,6-dimethyl-5-(3,4,5-trifluorophenyl)pyridin-3-yl)acetic acid] and `Cc1nc(C)c([C@H](OC(C)(C)C)C(=O)O)c(N2CCC(C)(C)CC2)c1-c1cc(F)c(CO)c(F)c1` [Example 34, (S)-2-(tert-Butoxy)-2-(5-(3,5-difluoro-4-(hydroxymethyl)phenyl)-4-(4,4-dimethylpiperidin-1-yl)-2,6-dimethylpyridin-3-yl)acetic acid] cannot be ordered by EC50: < 0.1 µM for the first, < 0.1 µM for the second.

First: CC(=O)NNC(=O)c1ccc(-c2c(C)nc(C)c([C@H](OC(C)(C)C)C(=O)O)c2N2CCC(C)(C)CC2)cc1 [Example 37, (S)-2-(5-(4-(2-Acetylhydrazinecarbonyl)phenyl)-4-(4,4-dimethylpiperidin-1-yl)-2,6-dimethylpyridin-3-yl)-2-(tert-butoxy)acetic acid]
Second: Cc1nc(C)c([C@H](OC(C)(C)C)C(=O)O)c(N2CCC(C)(C)CC2)c1-c1ccc(C(=O)NC2CC2)cc1 [Example 43, (S)-2-(tert-Butoxy)-2-(5-(4-(cyclopropylcarbamoyl)phenyl)-4-(4,4-dimethylpiperidin-1-yl)-2,6-dimethylpyridin-3-yl)acetic acid]
The EC50 of the first is higher: > 1 µM for the first, < 0.1 µM for the second. The second is the more potent here.

`Cc1cc(-c2c(C)nc(C)c([C@H](OC(C)(C)C)C(=O)O)c2N2CCC(C)(C)CC2)ccc1F` [Example 39, (S)-2-(tert-Butoxy)-2-(4-(4,4-dimethylpiperidin-1-yl)-5-(4-fluoro-3-methylphenyl)-2,6-dimethylpyridin-3-yl)acetic acid] and `Cc1nc(C)c([C@H](OC(C)(C)C)C(=O)O)c(N2CCC(C)(C)CC2)c1-c1ccc(F)c(F)c1` [Example 41, (S)-2-(tert-Butoxy)-2-(5-(3,4-difluorophenyl)-4-(4,4-dimethylpiperidin-1-yl)-2,6-dimethylpyridin-3-yl)acetic acid] cannot be ordered by EC50: < 0.1 µM for the first, < 0.1 µM for the second.

`Cc1nc(C)c([C@H](OC(C)(C)C)C(=O)O)c(N2CCC(C)(C)CC2)c1-c1cccc(C(C)C)c1` [Example 40, (S)-2-(tert-Butoxy)-2-(4-(4,4-dimethylpiperidin-1-yl)-5-(3-isopropylphenyl)-2,6-dimethylpyridin-3-yl)acetic acid] and `Cc1ccc(-c2c(C)nc(C)c([C@H](OC(C)(C)C)C(=O)O)c2N2CCC(C)(C)CC2)cc1C` [Example 44, (S)-2-(tert-Butoxy)-2-(5-(3,4-dimethylphenyl)-4-(4,4-dimethylpiperidin-1-yl)-2,6-dimethylpyridin-3-yl)acetic acid] cannot be ordered by EC50: < 0.1 µM for the first, < 0.1 µM for the second.

`Cc1nc(C)c([C@H](OC(C)(C)C)C(=O)O)c(N2CCC(C)(C)CC2)c1-c1ccc(-c2nnn[nH]2)cc1` [Example 46, (S)-2-(5-(4-(1H-Tetrazol-5-yl)phenyl)-4-(4,4-dimethylpiperidin-1-yl)-2,6-dimethylpyridin-3-yl)-2-(tert-butoxy)acetic acid] and `Cc1nc(C)c([C@H](OC(C)(C)C)C(=O)O)c(N2CCC(C)(C)CC2)c1-c1cccc(-c2nnn[nH]2)c1` [Example 47, (S)-2-(5-(3-(1H-Tetrazol-5-yl)phenyl)-4-(4,4-dimethylpiperidin-1-yl)-2,6-dimethylpyridin-3-yl)-2-(tert-butoxy)acetic acid] cannot be ordered by EC50: > 1 µM for the first, > 1 µM for the second.

same assay, conditions: Renilla, NL43, 120 h, read-out: EC50 μM

Point of comparison: `CC(=O)NNC(=O)c1ccc(-c2c(C)nc(C)c([C@H](OC(C)(C)C)C(=O)O)c2N2CCC(C)(C)CC2)cc1` [Example 37, (S)-2-(5-(4-(2-Acetylhydrazinecarbonyl)phenyl)-4-(4,4-dimethylpiperidin-1-yl)-2,6-dimethylpyridin-3-yl)-2-(tert-butoxy)acetic acid], EC50 1.15 µM. Against it:
- Cc1nc(C)c([C@H](OC(C)(C)C)C(=O)O)c(N2CCC(C)(C)CC2)c1-c1ccc(CC(N)=O)cc1 [Example 26, (S)-2-(5-(4-(2-Amino-2-oxoethyl)phenyl)-4-(4,4-dimethylpiperidin-1-yl)-2,6-dimethylpyridin-3-yl)-2-(tert-butoxy)acetic acid] — 3.1-fold lower, 0.373 µM
